The text below walks through data of patent publication US8354436B2 (4SC Discovery GmbH, priority 2011, dated 2013).

In one assay the test system is PBMC from healthy human donors. Kind of assay: T cell proliferation assay (PHA-stimulated human PBMC, BrdU ELISA). The class given is cell-based. The conditions noted are these: PHA-stimulated human PBMC, 48 hours, column D, read-out: IC50 (Tcell proliferation). As to the method: Cell proliferation was analysed using the BrdU based cell proliferation ELISA from Roche (Mannheim, Germany) according to the manufacturer's instructions. T Cell Proliferation Assay Peripheral blood mononuclear cells (PBMC) from healthy human donors were isolated by centrifugation over Ficoll-Hypaque (Sigma-Aldrich, Germany) according to manufacturer's instructions. Purified PBMC were washed twice with PBS and resuspended in RPMI1640 culture medium supplemented with 10% dialyzed heat inactivated fetal calf serum, 1.5 mM L-glutamine, 100 U penicillin/ml, and […] (all from PAN Biotech, Aidenbach, Germany). For stimulation, PBMC were seeded at 1×10^5 cells/well, activated with 2 μg/ml phytohaemagglutinin (PHA, Sigma) and incubated with the test compound. After 48 hours proliferation was measured using the BrdU based cell proliferation ELISA from Roche (Mannheim, Germany) according to the manual.
On the technique in general: Uptake of a labelled nucleoside into DNA is a usual measure of proliferation.
Take `COC(=O)c1c(-c2c(F)cccc2Cl)noc1-c1cnn(-c2cccc(Cl)c2Cl)c1C(F)(F)F` [Example I-4, methyl 3-(2-chloro-6-fluorophenyl)-5-(1-(2,3-dichlorophenyl)-5-(trifluoromethyl)-1H-pyrazol-4-yl)isoxazole-4-carboxylate]: the IC50 lay in the range of 1 to 10 µM.

With `COC(=O)c1c(-c2c(F)cccc2Cl)noc1-c1cnn(-c2ccc(Cl)cc2Cl)c1C(F)(F)F` [Example I-7, methyl 3-(2-chloro-6-fluorophenyl)-5-(1-(2,4-dichlorophenyl)-5-(trifluoromethyl)-1H-pyrazol-4-yl)isoxazole-4-carboxylate], the IC50 fell in the range of 1 to 10 µM.

With `CCOC(=O)c1c(-c2onc(-c3c(F)cccc3Cl)c2C(=O)OC)cnn1CC(C)C` [Example I-29], the IC50 fell in the range of 1 to 10 µM.

In the case of `COC(=O)c1c(-c2c(F)cccc2Cl)noc1-c1cnn(-c2ccc(OC(F)(F)F)cc2)c1C(F)(F)F` [Example I-33, methyl 3-(2-chloro-6-fluorophenyl)-5-(1-(4-(trifluoromethoxy)phenyl)-5-(trifluoromethyl)-1H-pyrazol-4-yl)isoxazole-4-carboxylate], the IC50 is 1 to 10 µM.

On to `CCOC(=O)c1c(-c2onc(-c3c(F)cccc3Cl)c2C(=O)OC)cnn1-c1ccccc1` [Example I-34, methyl 3-(2-chloro-6-fluorophenyl)-5-(5-(ethoxycarbonyl)-1-phenyl-1Hpyrazol-4-yl)isoxazole-4-carboxylate], for which the IC50 was in the range of 1 to 10 µM.

Turning to `CCOC(=O)c1c(-c2onc(-c3c(F)cccc3Cl)c2C(=O)OC)cnn1-c1cc(F)cc(F)c1` [Example I-39, methyl 3-(2-chloro-6-fluorophenyl)-5-(1-(3,5-difluorophenyl)-5-(ethoxycarbonyl)-1-H-pyrazol-4-yl)isoxazole-4-carboxylate], the IC50 lay within 1 to 10 µM.

On to `COC(=O)c1c(-c2c(F)cccc2Cl)noc1-c1cnn(-c2nc(-c3ccc(F)cc3)cs2)c1C(F)(F)F` [Example I-54, methyl 3-(2-chloro-6-fluorophenyl)-5-(1-(4-(4-fluorophenyl)thiazol-2-yl)-5-(trifluoromethyl)-1H-pyrazol-4-yl)isoxazole-4-carboxylate], for which the IC50 fell in the range of 1 to 10 µM.

Consider `COC(=O)c1c(-c2c(F)cccc2Cl)noc1-c1cnn(-c2cccc(F)c2)c1C(F)(F)C(F)F` [Example I-64, methyl 3-(2-chloro-6-fluorophenyl)-5-(1-(3-fluorophenyl)-5-(1,1,2,2-tetrafluoroethyl)-1H-pyrazol-4-yl)isoxazole-4-carboxylate], for which the IC50 lay within 1 to 10 µM.

Still in this assay, the particulars now being: human PBMC, 2 μg/ml PHA, 48 hours, read-out: D: IC50 (Tcell proliferation).
In the case of `CC(C)Cn1ncc(-c2onc(-c3c(F)cccc3Cl)c2-c2nnn[nH]2)c1C(F)(F)F` [Example 1, 3-(2-chloro-6-fluorophenyl)-5-(1-isobutyl-5-(trifluoromethyl)-1H-pyrazol-4-yl)-4-(1H-tetrazol-5-yl)isoxazole], the IC50 lay within 1 to 10 µM.

A further assay has as its system IFN-γ. Kind of assay: IFN-γ production by PHA-stimulated human PBMC (OptEIA human IFN-g ELISA). The class given is cell-based. Particulars: PHA-stimulated human PBMC, 48 hours; column C; read-out: IC50 (IFNγ). As to the method: Analysis of Proliferation of and Cytokine Production by Human PBMC Stimulated with PHA
Peripheral blood mononuclear cells (PBMC) from healthy human donors were purified using Accuspin™ System-Histopaque-1077 (Sigma) according to the protocol recommended by the manufacturer. Purified PBMC were then washed twice with phosphate-buffered saline (PBS) and resuspended in RPMI1640 culture medium supplemented with 10% dialyzed heat inactivated fetal calf serum, 1.5 mM L-glutamine, 100 U penicillin/ml, and […] (all from PAN Biotech, Aidenbach, Germany). For stimulation, PBMC were seeded at 1×10^5 cells/well, activated with 2 μg/ml phytohaemagglutinin (PHA, Sigma) and incubated with the test compounds for 48 hours. IL-17A, IL-17F and INF-γ were then determined in the culture supernatant using a Luminex BioPlex system, following the manufacturer's instructions (BioRad, Munich, Germany). For screening, compounds were used at 10, 1, 0.1 and 0.01 μM. To determine the IC50, compounds were titrated semilogarithmically.
Cytokines were determined in the aforementioned culture supernatant using the following methods: IL-17AA/AF was measured using the Luminex BioPlex system (BioRad, Munich, Germany); IL-17AA using the human homodimer IL-17A ELISA Ready Set Go Kit from eBioscience (Frankfurt, Germany); IL-17FF using the human IL-17F ELI-Pair from Hölzel DiagnosticaGmBH (Köln, Germany); and IFN-γ using the OptEIA human IFN-g ELISA from BD Bioscience (Heidelberg, Germany), all following the manufacturer's instructions.
For orientation: An ELISA detects its analyte on a solid surface through an enzyme-linked reagent.
Regarding `CCOC(=O)c1c(-c2onc(-c3c(F)cccc3Cl)c2C(=O)OC)cnn1-c1ccsc1C(=O)OC` [Example I-15, methyl 3-(2-chloro-6-fluorophenyl)-5-(5-(ethoxycarbonyl)-1-(2-(methoxycarbonyl)thiophen-3-yl)-1H-pyrazol-4-yl)isoxazole-4-carboxylate], the IC50 is 1 to 10 µM.

Consider `Fc1ccc(-n2ncc(-c3cc(-c4c(F)cccc4Cl)no3)c2C(F)(F)F)cc1` [Example I-25, 3-(2-chloro-6-fluorophenyl)-5-(1-(4-fluorophenyl)-5-(trifluoromethyl)-1H-pyrazol-4-yl)isoxazole], for which the IC50 is 1 to 10 µM.

For the compound `CCOC(=O)c1c(-c2onc(-c3c(F)cccc3Cl)c2C(=O)OC)cnn1-c1c(F)c(F)cc(F)c1F` [Example I-38, methyl 3-(2-chloro-6-fluorophenyl)-5-(5(ethoxycarbonyl)-1-(2,3,5,6-tetrafluorophenyl)-1H-pyrazol-4-yl)isoxazole-4-carboxylate], the IC50 lay within 1 to 10 µM.

As to `CCOC(=O)c1c(-c2onc(-c3c(F)cccc3Cl)c2C(=O)OC)cnn1-c1ccccc1OC` [Example I-40], the IC50 lay in the range of 1 to 10 µM.

In the case of `CCOC(=O)c1c(-c2onc(-c3c(F)cccc3Cl)c2C(=O)OC)cnn1-c1ccc(OC(F)(F)F)cc1` [Example I-45, methyl 3-(2-chloro-6-fluoro-phenyl)-5-(5-(ethoxycarbonyl)-1-(4-(trifluoromethoxy)phenyl)1H-pyrazol-4-yl)isoxazole-4-carboxylate], the IC50 is 1 to 10 µM.

Take `CNC(=O)c1c(-c2ccc(Cl)cc2)noc1-c1cnn(-c2cccc(F)c2)c1C(F)(F)F` [Example I-75, 3-(4-chlorophenyl)-5-(1-(3-fluorophenyl)-5-(trifluoromethyl)-1H-pyrazol-4-yl)-N-methylisoxazole-4-carboxamide]: the IC50 lay within 1 to 10 µM.

`COC(=O)c1c(-c2c(F)cccc2Cl)noc1-c1cnn(-c2ccc(OC)cc2)c1C(F)(F)F` [Example I-79]: the IC50 fell in the range of 1 to 10 µM.

In the case of `COC(=O)c1c(-c2c(F)cccc2Cl)noc1-c1cnn(-c2ccccc2Br)c1C(F)(F)F` [Example I-80, methyl 5-(1-(2-bromophenyl)-5-(trifluoromethyl)-1H-pyrazol-4-yl)-3-(2-chloro-6-fluorophenyl)isoxazole-4-carboxylate], the IC50 lay in the range of 1 to 10 µM.

Turning to `COC(=O)c1c(-c2c(F)cccc2Cl)noc1-c1cnn(CCO)c1C(F)(F)F` [Example I-83, methyl 3-(2-chloro-6-fluorophenyl)-5-(1-(2-hydroxyethyl)-5-(trifluoromethyl)-1H-pyrazol-4-yl)isoxazole-4-carboxylate], the IC50 is 1 to 10 µM.

Take `CCOC(=O)c1c(-c2ccc(Cl)c(Cl)c2)noc1-c1cnn(-c2cccc(F)c2)c1C(F)(F)F` [Example I-99, ethyl 3-(3,4-dichlorophenyl)-5-(1-(3-fluorophenyl)-5-(trifluoromethyl)-1H-pyrazol-4-yl)isoxazole-4-carboxylate]: the IC50 is 1 to 10 µM.

In the case of `COC(=O)c1c(-c2c(F)cccc2Cl)noc1-c1cnn(Cc2ccccn2)c1C(F)(F)F` [Example I-101, methyl 3-(2-chloro-6-fluorophenyl)-5-(1-(pyridin-2-ylmethyl)-5-(trifluoromethyl)-1H-pyrazol-4-yl)isoxazole-4-carboxylate], the IC50 was in the range of 1 to 10 µM.

For `COC(=O)c1c(-c2c(F)cccc2Cl)noc1-c1cnn(CCN2CCCCC2)c1C(F)(F)F` [Example I-104, methyl 3-(2-chloro-6-fluorophenyl)-5-(1-(2-(piperidin-1-yl)ethyl)-5-(trifluoromethyl)-1H-pyrazol-4-yl)isoxazole-4-carboxylate], the IC50 was 1 to 10 µM.

Regarding `O=C(O)c1c(-c2cccc(F)c2)noc1-c1cnn(-c2cccc(F)c2)c1C(F)(F)F` [Example I-114, 3-(3-fluorophenyl)-5-(1-(3-fluorophenyl)-5-(trifluoromethyl)-1H-pyrazol-4-yl)isoxazole-4-carboxylic acid], the IC50 is 1 to 10 µM.

On to `Fc1ccccc1-n1ncc(-c2onc(-c3c(F)cccc3Cl)c2C(=S)N2CCOCC2)c1C(F)(F)F` [Example I-123, (3-(2-chloro-6-fluorophenyl)-5-(1-(2-fluorophenyl)-5-(trifluoromethyl)-1H-pyrazol-4-yl)isoxazol-4-yl)(morpholino)meth-anethione], for which the IC50 is 1 to 10 µM.

As for `CC(=O)NNC(=O)c1c(-c2c(F)cccc2Cl)noc1-c1cnn(-c2ccccc2F)c1C(F)(F)F` [Example I-142, N′-acetyl-3-(2-chloro-6-fluorophenyl)-5-(1-(2-fluorophenyl)-5-(trifluoromethyl)-1H-pyrazol-4-yl)isoxazole-4-carbohydrazide], the IC50 lay in the range of 1 to 10 µM.

On to `CC(C)Cn1ncc(-c2onc(-c3c(F)cccc3Cl)c2C(=O)O)c1C(F)(F)F` [IB-19, 3-(2-chloro-6-fluorophenyl)-5-(1-isobutyl-5-(trifluoromethyl)-1H-pyrazol-4-yl)isoxazole-4-carboxylic acid], for which the IC50 fell in the range of 1 to 10 µM.

On to `COc1ccccc1-n1ncc(-c2onc(-c3c(F)cccc3Cl)c2Br)c1C(F)(F)F` [IB-23, 4-bromo-3-(2-chloro-6-fluorophenyl)-5-(1-(2-methoxyphenyl)-5-(trifluoromethyl)-1H-pyrazol-4-yl)isoxazole], for which the IC50 was 1 to 10 µM.

The same assay, now with this note: human PBMC, 2 μg/ml PHA, 48 hours; read-out: C: IC50 (IFNγ).
For `Fc1cccc(Cl)c1-c1noc(-c2cnn(-c3ccccc3Cl)c2C(F)(F)F)c1-c1nnco1` [Example B-14, 2-(3-(2-chloro-6-fluorophenyl)-5-(1-(2-chlorophenyl)-5-(trifluoromethyl)-1H-pyrazol-4-yl)isoxazol-4-yl)-1,3,4-oxadiazole], the IC50 fell in the range of 1 to 10 µM.
